Source: PMC9126592, “sp^2-Iminosugars targeting human lysosomal β-hexosaminidase as pharmacological chaperone candidates for late-onset Tay-Sachs disease” (Journal of Enzyme Inhibition and Medicinal Chemistry, 2022)
Where two headings read alike, the source gives them in different places.

Legend:
Format in all cases: biochemical
[1] = molecular target: T1, HexA (human lysosomal β-hexosaminidase A) (Homo sapiens, UniProt P06865); test: Inhibition of HexA in human fibroblast lysates at pH 7 or pH 5
T1 construct: HexA activities in cell lysates were also determined in 0.1 M citrate buffer at pH 5 or pH 7; endogenous in cells; host or cells: human fibroblasts (lysate)
T1 sequence (P06865 89-529): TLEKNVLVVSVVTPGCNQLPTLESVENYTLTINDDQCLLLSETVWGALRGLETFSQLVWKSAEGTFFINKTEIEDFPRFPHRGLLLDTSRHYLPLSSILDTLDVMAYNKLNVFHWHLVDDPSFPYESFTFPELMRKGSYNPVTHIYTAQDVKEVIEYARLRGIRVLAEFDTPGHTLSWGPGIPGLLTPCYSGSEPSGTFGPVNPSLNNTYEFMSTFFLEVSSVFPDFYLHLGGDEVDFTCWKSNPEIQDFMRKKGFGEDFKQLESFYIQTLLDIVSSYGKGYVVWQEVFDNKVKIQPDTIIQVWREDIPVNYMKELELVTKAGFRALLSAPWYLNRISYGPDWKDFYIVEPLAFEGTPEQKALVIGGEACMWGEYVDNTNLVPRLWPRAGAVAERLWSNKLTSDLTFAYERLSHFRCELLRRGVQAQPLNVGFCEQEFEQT
T1 sequence (P07686 122-556 partner): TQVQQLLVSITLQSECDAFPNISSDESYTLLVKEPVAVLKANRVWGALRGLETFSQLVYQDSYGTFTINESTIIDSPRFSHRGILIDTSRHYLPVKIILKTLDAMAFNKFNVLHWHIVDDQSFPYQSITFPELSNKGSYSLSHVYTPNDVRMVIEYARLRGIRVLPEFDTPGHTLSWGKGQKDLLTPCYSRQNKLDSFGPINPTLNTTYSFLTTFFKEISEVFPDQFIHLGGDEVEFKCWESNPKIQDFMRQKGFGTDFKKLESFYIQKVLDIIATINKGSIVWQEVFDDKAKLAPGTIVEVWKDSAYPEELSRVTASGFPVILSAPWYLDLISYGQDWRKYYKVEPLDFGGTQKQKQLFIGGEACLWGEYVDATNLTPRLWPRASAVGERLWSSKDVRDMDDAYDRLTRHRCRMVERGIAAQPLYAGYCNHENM
Procedure: (§1) For determination of lysosomal enzyme activities in cell lysates, cells were scraped into ice-cold H2O (10^6 cells mL^−1) and lysed by sonication. Insoluble materials were removed by centrifugation at 15,000 rpm for 5 min and protein concentrations were determined with Protein Assay Rapid Kit (WAKO, Tokyo, Japan). 10 µL of the lysates in 0.1% Triton X-100 in distilled water were incubated at 37 °C with 20 µL of the substrate solution in 0.1 M citrate buffer, pH 4.5, in absence or presence of increasing concentrations of the chaperones. The substrates were 4-methylumbelliferone (4-MU)-conjugated β-D-glucopyranoside (for GCase), α-D-glucopyranoside (for α-glucosidase), α-D-galactopyranoside (for α-Galase), β-D-galactopyranoside (for β-galactosidase), N-acetyl-β-D-glucosaminide (for total β-hexosaminidase), N-acetyl-β-D-glucosaminide-6-sulfate sodum salt (for HexA) and α-N-acetyl-D-galactosaminide for α-N-acetylgalactosaminidase. HexA activities in cell lysates were also determined in 0.1 M citrate buffer at pH 5 or pH 7, supplemented with sodium taurocholate (0.8% w/v). The reactions were terminated by adding 0.2 ml of 0.2 M glycine sodium hydroxide buffer (pH 10.7). The liberated 4-methylumbelliferone was measured in the black-well plate with a Perkin Elmer Luminescence Spectrometer (excitation wavelength: 340 nm; emission: 460 nm). One unit of enzyme activity was defined as nmol of 4-methylumbelliferone released per hour and normalised for the amount of protein contained in the lysates.

[2] = molecular target: β-hexosaminidase from human placenta; test: Commercial enzyme inhibition assay, β-hexosaminidase from human placenta; conditions: mean ± SD (n = 3); competitive
Procedure: (§2) Inhibition constant (Ki) values were determined by spectrophotometrically measuring the residual hydrolytic activities of the glycosidases against the respective o- (for β-galactosidase from E. coli) or p-nitrophenyl α- or β-D-glycopyranoside (for other glycosidases) in the presence of the iminosugars. Each assay was performed in phosphate buffer or phosphate-citrate buffer (for α- or β-mannosidase, amyloglucosidase or β-N-acetylglucosaminidase) at the optimal pH for the enzymes. The reactions were initiated by addition of the enzyme to a solution of the substrate in the absence or presence of various inhibitor concentrations. The mixture was incubated for 10–30 min at 37 °C or 55 °C (for amyloglucosidase) and the reaction was quenched by addition of 1 m Na2CO3. Reaction times were appropriate to obtain 10%–20% conversion of the substrate in order to achieve linear rates. The absorbance of the resulting mixture was determined at 405 nm. Approximate values of Ki were determined using a fixed concentration of substrate (around the KM value for the different glycosidases) and various inhibitor concentrations. Full Ki determinations and the enzyme inhibition mode were determined from the slope of Lineweaver-Burk plots and double reciprocal analysis.

[3] = molecular target: Total Hex (human lysosomal β-hexosaminidase); test: Inhibition of total β-hexosaminidase in human fibroblast lysates; conditions: mean of three determinations
Procedure: as §1

[4] = molecular target: β-hexosaminidase from bovine kidney; test: Commercial enzyme inhibition assay, β-hexosaminidase from bovine kidney; conditions: mean ± SD (n = 3); competitive
Procedure: as §2

[5] = pH 5, competitive, read-out: Ki HexA pH 5
[6] = pH 7, competitive, read-out: Ki HexA pH 7

Row | Structure (SMILES) | Ki [1, 5] | Ki [1, 6] | Ki [2] | IC50 [3] | Ki [4]
1 | CCCCNC(=S)N1C[C@H](NC(C)=O)[C@@H](O)[C@@H](O)[C@H]1CO [Compound 1, 2-Acetamido-1,2-dideoxy-5-N-(N’-butylthiocarbamoyl)galactonojirimycin] | 33700 nM | 4700 nM | 4800 ± 200 nM | > 100000 nM | 3500 ± 200 nM
2 | CCCCCCCCNC(=S)N1C[C@H](NC(C)=O)[C@@H](O)[C@@H](O)[C@H]1CO [Compound 2, 2-Acetamido-1,2-dideoxy-5-N-(N’-octylthiocarbamoyl)galactonojirimycin] | > 100000 nM | > 100000 nM | 3000 ± 100 nM | > 100000 nM | 2200 ± 100 nM
3 | CC(=O)N[C@H]1CN(C(=S)NCc2ccccc2)[C@H](CO)[C@H](O)[C@@H]1O [Compound 3, 2-Acetamido-1,2-dideoxy-5-N-(N’-benzylthiocarbamoyl)galactonojirimycin] | > 100000 nM | > 100000 nM | 16000 ± 500 nM | > 100000 nM | 6300 ± 200 nM
4 | CC(=O)N[C@H]1CN(C(=S)Nc2ccccc2)[C@H](CO)[C@H](O)[C@@H]1O [Compound 4, 2-Acetamido-1,2-dideoxy-5-N-(N’-phenylthiocarbamoyl)galactonojirimycin] | 9400 nM | 910 nM | 240 nM | 10900 nM | 140 ± 10 nM
5 | CCCCN=C1SCC2C(O)C(O)C(NC(C)=O)CN12 (stereo not drawn) [Compound 5, 2-Acetamido-1,2-dideoxy-5-N,6-S-(N’-butyliminomethylidene)-6-thiogalactonojirimycin] | 9800 nM | 990 nM | 55 ± 2 nM | 2600 nM | 24 ± 2 nM
6 | CCCCCCCCN=C1SCC2C(O)C(O)C(NC(C)=O)CN12 (stereo not drawn) [Compound 6, 2-Acetamido-1,2-dideoxy-5-N,6-S-(N’-octyliminomethylidene)-6-thiogalactonojirimycin] | 6400 nM | 580 nM | 26 ± 1 nM | 1300 nM | 15 ± 1 nM
7 | CC(=O)NC1CN2C(=NCc3ccccc3)SCC2C(O)C1O (stereo not drawn) [Compound 7, 2-Acetamido-1,2-dideoxy-5-N,6-S-(N’-benzyliminomethylidene)-6-thiogalactonojirimycin] | 6900 nM | 660 nM | 26 ± 1 nM | 2200 nM | 20 ± 1 nM
8 | CC(=O)NC1CN2C(=Nc3ccccc3)SCC2C(O)C1O (stereo not drawn) [Compound 8, 2-Acetamido-1,2-dideoxy-5-N,6-S-(N’-phenyliminomethylidene)-6-thiogalactonojirimycin] | 3900 nM | 410 nM | 44 ± 2 nM | 330 nM | 46 ± 2 nM
